Measured values: patent US11191762B2, “Alkyl substituted triazole compounds as agonists of the APJ Receptor” (priority 2016, dated 2021)

How the values were obtained:
heart failure rats = assay: Cardiac function with ACE inhibitor captopril and APJ agonist in heart failure rats in vivo; parameters: species or system rat; conditions: captopril alone, acute settings
Source text: The interaction between […] (ACE2) and Apelin biology is complicated. To investigate the interaction between the Apelin-APJ and ACE signalling pathways, we examined the improvement in cardiac function with APJ small molecule agonists in the presence of ACE inhibitor captopril in heart failure rats in vivo. […] However, in the presence of an APJ agonist, there was a shift in potency to the left with marked improvement in contractility and ejection fraction without changes in heart rate. These findings provide a new reference for the understanding of the regulation of ACE2 for the renin angiotensin aldosterone system (RAAS), independent of AT1R signaling and offer new potential drug targets for the treatment of diseases such as hypertension and heart failure. This work clearly establishes that combination of an agonist of the APJ receptor with an ARB such as losartan and/or with an ACE inhibitor such as captopril which may play an important role in providing greater efficacy in treating heart failure patients, for example in improving contractility and ejection fraction without changing the heart rate.

[1] = molecular target: human APJ-AT1R (angiotensin Type 1) double stable CHO cell line (Homo sapiens (Human), UniProt P35414); assay: IP1 accumulation (TR-FRET), AngII cooperativity, APJ-AT1R double stable cells; type: cell-based; conditions: APJ small molecule agonists in the presence of AngII
Sequence of human APJ-AT1R (angiotensin Type 1) double stable CHO cell line (P35414 whole entry): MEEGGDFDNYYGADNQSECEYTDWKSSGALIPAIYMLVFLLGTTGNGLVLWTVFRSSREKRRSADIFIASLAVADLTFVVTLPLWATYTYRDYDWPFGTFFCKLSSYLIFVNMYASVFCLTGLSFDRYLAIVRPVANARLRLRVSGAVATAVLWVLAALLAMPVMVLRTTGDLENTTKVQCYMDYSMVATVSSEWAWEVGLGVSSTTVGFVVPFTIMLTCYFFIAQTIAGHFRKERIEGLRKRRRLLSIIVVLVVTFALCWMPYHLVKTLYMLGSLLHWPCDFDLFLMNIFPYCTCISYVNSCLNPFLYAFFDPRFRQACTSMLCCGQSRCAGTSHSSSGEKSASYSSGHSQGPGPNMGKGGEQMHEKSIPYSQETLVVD
Experimental: Single and double stable recombinant cell lines were generated for human APJ and the AT1R receptor in CHO K1 cells tagged either with FLAG or hemagglutinin (HA) tag. Briefly, the CHO-K1 APJ/AT1R cells were seeded in culture medium of DMEM-F12 and 10% FBS at a density of 15 k/well in a 96 well plate overnight. The next day, the culture medium was replaced with medium containing no serum for 4 h. The compound AngII at a range of concentrations (1 pM-10 μM) with or without different concentrations of APJ agonists were diluted in stimulation buffer and added to the cell plate. The plate was sealed and incubated for 1 h. This was followed by addition of IP-d2 conjugate followed by europium cryptate antibody conjugate into the wells. The plate was sealed, followed with incubation for 2 h at RT. Time-resolved fluorescence resonance energy (TR-FRET) at 620 nm and 665 nm was measured after 2 h with an Envision reader. The signal ratios and delta F were calculated and the amount of IP1 produced was inversely proportional to the TR-FRET ratio, 665/620 nm.

human APJ receptor = human APJ receptor (Homo sapiens (Human), UniProt P35414); assay: biochemical; type: biochemical; conditions: [35S]GTPγS binding, membranes from CHO cells stably expressing human APJ receptor; read-out: Activity hAPJ SPA EC50 IP
Sequence of human APJ receptor (P35414 whole entry): as above
In short: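 [35S]GTPγS binding to membranes from CHO cells stably expressing human APJ, captured on WGA PS beads (5 μg/well). Buffer: 20 mM HEPES pH 7.5, 5 mM MgCl2, 100 mM NaCl, 0.1% BSA, with 3 μM GDP and 0.1 nM [35S]GTPγS final; compounds tested as 22-point 2-fold dilutions.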

Row | Compound | EC50 (human APJ receptor) | other results
1 | C[C@H](CS)C(=O)N1CCC[C@H]1C(=O)O [Captopril, captopril] |  | contractility or ejection fraction (heart failure rats): does not show a marked improvement in contractility or ejection fraction
2 | CCCCc1nc(Cl)c(CO)n1Cc1ccc(-c2ccccc2-c2nn[nH]n2)cc1 [losartan] |  | effect of losartan on APJ agonist induced cooperativity [1]: relieved this cooperativity
3 | COc1ncnc(OC)c1-n1c(COCC(F)(F)F)nnc1NS(=O)(=O)[C@@H](C)[C@H](OC)c1ncc(Cl)cn1 [Example 135.0, (1R,2S)-1-(5-chloro-2-pyrimidinyl)-N-(4-(4,6-dimethoxy-5-pyrimidinyl)-5-((2,2,2-trifluoroethoxy)methyl)-4H-1,2,4-triazol-3-yl)-1-methoxy-2-propanesulfonamide] | 0.04 µM | 
4 | COc1ncnc(OC)c1-n1c(Cc2ccccc2)nnc1NS(=O)(=O)[C@@H](C)[C@H](C)c1ncc(Cl)cn1 [Example 21.0, (2S,3R)-N-(5-benzyl-4-(4,6-dimethoxy-5-pyrimidinyl)-4H-1,2,4-triazol-3-yl)-3-(5-chloro-2-pyrimidinyl)-2-butanesulfonamide] | 0.12 µM | 
5 | COc1ncnc(OC)c1-n1c(CC2CCC2)nnc1NS(=O)(=O)[C@@H](C)[C@H](OC)c1ncc(Cl)cn1 [Example 24.0, (1R,2S)-1-(5-chloro-2-pyrimidinyl)-N-(5-(cyclobutylmethyl)-4-(4,6-dimethoxy-5-pyrimidinyl)-4H-1,2,4-triazol-3-yl)-1-methoxy-2-propanesulfonamide] | 0.0015 µM | 
6 | COCc1nnc(NS(=O)(=O)[C@@H](C)[C@H](C)c2ncc(Cl)cn2)n1-c1cc(OC)ccc1Cl [Example 162.0] | 0.024 µM | 
7 | COc1cccc(OC)c1-n1c(CC(C)(C)OC)nnc1NS(=O)(=O)[C@@H](C)[C@H](C)c1ncc(Cl)cn1 [Example 40.0, (2S,3R)-3-(5-chloro-2-pyrimidinyl)-N-(4-(2,6-dimethoxyphenyl)-5-(2-methoxy-2-methylpropyl)-4H-1,2,4-triazol-3-yl)-2-butanesulfonamide] | 0.11 µM | 
8 | COc1ccc(Cl)c(-n2c(COC(F)F)nnc2NS(=O)(=O)[C@@H](C)[C@H](OC)c2ncc(Cl)cn2)c1 [Example 160.0] | 0.021 µM | 
9 | COCc1nnc(NS(=O)(=O)[C@@H](C)[C@H](OC)c2ncc(Cl)cn2)n1C1CCOCC1 [Example 63.0, (1R, 2S)-1-(5-chloropyrimidin-2-yl)-1-methoxy-N-(5-(methoxymethyl)-4-(tetrahydro-2H-pyran-4-yl)-4H-1,2,4-triazol-3-yl)propane-2-sulfonamide] | 0.01 µM | 
10 | COCCc1nnc(NS(=O)(=O)[C@@H](C)[C@H](OC)c2ncc(Cl)cn2)n1C(COC)COC [Example 146.0] | 0.25 µM | 
